Test results as given in patent publication US20120088753A1, “PYRROLOPYRIMIDINES AND USED AS KINASE INHIBITORS” (MEDICAL RESEARCH COUNCIL TECHNOLOGY, priority 2009, published 2012).

Biological target: T1, TBK1 (Homo sapiens, UniProt Q9UHD2)
T1 construct: All protein kinases were of human origin and encoded full length proteins, unless indicated otherwise; His6; made in house; host or cells: insect Sf21 cells
T1 sequence (Q9UHD2 1-729): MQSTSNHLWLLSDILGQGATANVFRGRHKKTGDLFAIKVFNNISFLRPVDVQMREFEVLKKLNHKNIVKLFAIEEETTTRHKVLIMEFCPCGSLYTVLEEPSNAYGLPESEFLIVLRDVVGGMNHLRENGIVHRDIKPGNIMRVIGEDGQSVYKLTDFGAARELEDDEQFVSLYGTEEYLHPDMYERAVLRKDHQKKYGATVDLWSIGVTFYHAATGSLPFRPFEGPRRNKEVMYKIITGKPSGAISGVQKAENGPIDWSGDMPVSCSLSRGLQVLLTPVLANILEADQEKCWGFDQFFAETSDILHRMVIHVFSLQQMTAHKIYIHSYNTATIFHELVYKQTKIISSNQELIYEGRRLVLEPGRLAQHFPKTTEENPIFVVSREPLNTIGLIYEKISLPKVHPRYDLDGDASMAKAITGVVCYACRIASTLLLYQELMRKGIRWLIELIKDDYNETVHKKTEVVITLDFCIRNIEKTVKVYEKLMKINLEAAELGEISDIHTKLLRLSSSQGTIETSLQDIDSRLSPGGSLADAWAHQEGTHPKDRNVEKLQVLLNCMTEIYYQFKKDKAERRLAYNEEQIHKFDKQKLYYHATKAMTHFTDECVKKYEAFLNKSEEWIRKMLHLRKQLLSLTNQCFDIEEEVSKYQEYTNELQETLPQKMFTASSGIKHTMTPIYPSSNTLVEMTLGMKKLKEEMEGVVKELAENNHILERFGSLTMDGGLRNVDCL
Assay: TBK1 protein kinase assay ([γ-33P]ATP filter-plate, IC50 from 10 concentrations)
Format: biochemical
Details: 50 μM ATP, peptide substrate 300 μM, 30 min, 21° C.; read-out: Potency score (TBK1 IC50)
Source text: All protein kinases were of human origin and encoded full length proteins, unless indicated otherwise. They were either expressed as glutathione S-transferase (GST) fusion proteins in Escherichia Coli or as hexahistidine (His6)-tagged proteins in insect Sf21 cells. GST fusion proteins were purified by affinity chromatography on glutathione-Sepharose, and His6-tagged proteins on nickel/nitriloacetate-agarose. The procedures for expressing some of the protein kinases used herein have been detailed previously.^8,9 The following sections outline the DNA vectors synthesised and the procedures used to express and purifying protein kinases that have not been reported previously.
The following kinases were expressed in Sf21 cells: Aurora B and Aurora C, extra-cellular signal-regulated kinase 8 (ERK8), microtubule affinity regulating kinase 3 (MARK3), protein kinase Bα[118-480][S473D], protein kinase Bβ (PKBβ[120-481][S474D], 3-phosphoinositide-dependent protein kinase-1 [52-556] (PDK1[52-556], IKKε, TBK1,
All assays (25.5 μl) were carried out at room temperature (21° C.) and were linear with respect to time and enzyme concentration under the conditions used. Assays were performed for 30 min using Multidrop Micro reagent dispensers (Thermo Electron Corporation, Waltham, Mass. 02454, USA) in a 96-well format. The concentration of magnesium acetate in the assays was 10 mM and the [γ-33P] ATP (800 cpm/pmol) was used at 5, 20 or 50 μM as indicated, in order to be at or below the Km for ATP for each enzyme. Protein kinases assayed at 5 μM ATP were: ERK1, ERK8, PKBα, MARK3, Aurora C. Protein kinases assayed at 20 μM ATP were: JNK1, PDK1, CHK1, CHK2, CDK2 and Aurora B. Protein kinases assayed at 50 μM ATP were: MNK2, IKKepsilon and TBK1.
The assays were initiated with MgATP, stopped by addition of 5 μl of 0.5 M orthophosphoric acid and spotted on to P81 filterplates using a unifilter harvester (PerkinElmer, Boston, Mass. 02118, USA). The IC50 values of inhibitors were determined after carrying out assays at 10 different concentrations of each compound.
ERK1 and ERK8 were both assayed against myelin basic protein (MBP, 0.33 mg/ml). MARK3 was assayed against the peptide […] (300 μM), MNK2 against the eIF4E protein (0.5 mg/ml). PKBβ was assayed against the peptide GRPRTSSFAEGKK (30 μM). TBK1 were assayed against ([…]) (300 μM). The substrates used for other protein kinases were described previously.^8,9
Unless stated otherwise, enzymes were diluted in 50 mM Tris/HCl pH 7.5, 0.1 mM EGTA, 1 mg/ml BSA, 0.1% (v/v) 2-mercaptoethanol and assayed in 50 mM Tris/HCl pH 7.5, 0.1 mM EGTA, 0.1% (v/v) 2-mercaptoethanol.

Structure (SMILES) | IC50
O=C(NCCCn1ccc2cnc(Nc3cccc(CN4CCOCC4)c3)nc21)C1CCC1 [Example 52, Cyclobutanecarboxylic acid {3-[2-(3-morpholin-4-ylmethyl-phenylamino)-pyrrolo[2,3-d]pyrimidin-7-yl]-propyl}-amide] | < 100 nM
CN1CCc2ccc(Nc3ncc4ccn(CCCNC(=O)C5CCC5)c4n3)cc2C1 [Example 53, Cyclobutanecarboxylic acid {3-[2-(2-methyl-1,2,3,4-tetrahydro-isoquinolin-7-ylamino)-pyrrolo[2,3-d]pyrimidin-7-yl]-propyl}-amide] | < 100 nM
O=C(NCCCn1ccc2cnc(Nc3ccc(-c4cnco4)cc3)nc21)C1CCC1 [Example 54, Cyclobutanecarboxylic acid {3-[2-(4-oxazol-5-yl-phenylamino)-pyrrolo[2,3-d]pyrimidin-7-yl]-propyl}-amide] | < 100 nM
CN1CCCN(c2ccc(Nc3ncc4ccn(CCCNC(=O)C5CCC5)c4n3)cn2)CC1 [Example 55, Cyclobutanecarboxylic acid (3-{2-[6-(4-methyl-perhydro-1,4-diazepin-1-yl)-pyridin-3-ylamino]-pyrrolo[2,3-d]pyrimidin-7-yl}-propyl)-amide] | 100 to 1000 nM
CN1CCC(c2ccc(Nc3ncc4ccn(CCCNC(=O)C5CCC5)c4n3)cc2)CC1 [Example 56, Cyclobutanecarboxylic acid (3-{2-[4-(1-methyl-piperidin-4-yl)-phenylamino]-pyrrolo[2,3-d]pyrimidin-7-yl}-propyl]-amide] | < 100 nM
CN1CCC(O)(c2ccc(Nc3ncc4ccn(CCCNC(=O)C5CCC5)c4n3)cc2)CC1 [Example 57, Cyclobutanecarboxylic acid (3-{2-[4-(4-hydroxy-1-methyl-piperidin-4-yl)-phenylamino]-pyrrolo[2,3-d]pyrimidin-7-yl}-propyl)amide] | < 100 nM
COC1(c2ccc(Nc3ncc4ccn(CCCNC(=O)C5CCC5)c4n3)cc2)CCN(C)CC1 [Example 58, Cyclobutanecarboxylic acid (3-{2-[4-(4-methoxy-1-methyl-piperidin-4-yl)-phenylamino]-pyrrolo[2,3-d]pyrimidin-7-yl}-propyl)-amide] | < 100 nM
CN1CCC(C#N)(c2ccc(Nc3ncc4ccn(CCCNC(=O)C5CCC5)c4n3)cc2)CC1 [Example 59, Cyclobutanecarboxylic acid (3-{2-[4-(4-cyano-1-methyl-piperidin-4-yl)-phenylamino]-pyrrolo[2,3-d]pyrimidin-7-yl}-propyl)-amide] | < 100 nM
O=C(NCCCn1ccc2cnc(Nc3ccc(C4CCN(CCF)CC4)cc3)nc21)C1CCC1 [Example 60, Cyclobutanecarboxylic acid [3-(2-{4-[1-(2-fluoro-ethyl)-piperidin-4-yl]-phenylamino}-pyrrolo[2,3-d]pyrimidin-7-yl)-propyl]-amide] | < 100 nM
